Measured values published in patent US7045531B1, “Composition comprising a metal chelator and a method of treating amyloidosis by administering the metal chelator” (The General Hospital Corporation, priority 1997, dated 2006).
Entries after “also recorded” stand apart in the source; their conditions may differ.

Tests used:
[1] = Metal reduction assay, Cu^2+ (BC indicator); format: biochemical; conditions: Cu^2+ 10 μM; PBS pH 7.4; 1 hr, 37° C.
Description: (§1) Polypeptides (10 μM) or Vitamin C (100 μM), metal ions (10 μM, Fe(NO3)3 or Cu(NO3)2), and reduced metal ion indicators, bathophenanthrolinedisulfonic acid (BP, for Fe^2+, Sigma, 200 μM) or bathocuproinedisulfonic acid (BC, for Cu^+, Sigma, […]), were coincubated in phosphate buffered saline (PBS), pH 7.4, for 1 hr at 37° C. The metal ion solutions were prepared by direct dilution in the buffer from their aqueous stocks purchased from National Institute of Standards and Technology (NIST). Absorbances were then measured at 536 nm (Fe^2+-BP complex) and 483 nm (Cu^+-BC complex), respectively, using a 96-well plate reader (SPECTRAmax 250, Molecular Devices, Calif.). In control samples, both metal ion and indicator were present to determine the background buffer signal. As a further control, both metal ion and peptide were present in the absence of indicator to estimate the contribution of light scattering due to turbidity to the absorbance reading at these wavelengths. The net absorbances (ΔA) at 536 nm or 483 nm were obtained by deducting the absorbances from these controls from the absorbances generated by the peptide and metal in the presence of the respective indicator.

[2] = Metal reduction assay, Fe^3+ (BP indicator); format: biochemical; conditions: Fe^3+ 10 μM; PBS pH 7.4; 1 hr, 37° C.
Description: as §1, with “The metal reduction assay was performed using a 96-well microtiter plate (Costar) based upon a modification of established protocols (Landers, J. W., et al., Amer. Clin. Path. 29:590 (1958); Landers. J. W. et al., Clinica Chimica Acta 3:329 (1958)). Polypeptides” for “Polypeptides”
The concentrations of reduced metal ions (Fe^2+ or Cu^+) were quantified based on the formula: Fe^2+ or Cu^+ (˜M)=A*10^6/(L*M), where L is the measured equivalent vertical pathlength for a well of 300 μL volume as described in the instrument's specifications manual (0.856 cm for Fe^2+; 1.049 cm for Cu^+); M is the known molecular absorbance (M^−1 cm^−1) which is 7124 (for Fe^2+-BP complex) or 2762 (for Cu^+-BC complex).

[3] = Cu^+ generation / metal reduction (Example 2); format: biochemical; conditions: 10 μM in PBS; Cu^2+ 10 μM; 30 minutes, 37° C.
Description: This method is modified from a protocol assaying serum copper and iron (Landers, J. W., et al., Amer. J. Clin. Path. 29:590 (1958)). It is based on the fact that there are optimal visible absorption wavelengths of 483 nm and 535 nm for Cu^+ complexed with bathocuproinedisulfonic (BC) anion and Fe^2+ coordinated by bathophenanthrolinedisulfonic (BP) anion, respectively.
Aβ (10 μM in PBS, pH 7.4 or 6.8, as shown) was incubated for 30 minutes (37° C.) in the presence of Cu^2+ 10 μM±Zn^2+ 10 μM). Cu^+ levels (n=3, ±SD) were assayed against a standard curve.

Aβ1-42 = Aβ1-42 (Homo sapiens, UniProt P05067); experiment: Effect of OH. scavengers on OH. generation by Aβ1-42 (TBARS); format: biochemical; conditions: scavenger 5 mM; Fe^3+ or Cu^2+
Description: (§2) FIGS. 16A and 16B are graphical representations showing production of the hydroxyl radical (OH.) from the incubation of Aβ in the presence of substoichiometric amounts of Fe^3+ or Cu^2+. […] All data points are means±SD, n=3.
(§3) The Thiobarbituric Acid-Reactive Substance (TBARS) assay for incubation mixtures with Fe^3+ or Cu^2+ was performed in a 96-well microtiter format modified from established protocols (Gutteridge et al. Biochim. Biophys. Acta 759: 38–41 (1983)). Aβ peptide species (10 μM) or Vitamin C (100 μM), were incubated with Fe^3+ or Cu^2+ (1 μM) and deoxyribose (7.5 mM, Sigma) in PBS, pH 7.4. Following incubation (37° C., 1 hour), glacial (17 M) acetic acid and 2-thiobarburic acid (1%, w/v in 0.05 M NaOH, Sigma) were added and heated (100° C., 10 min). The final mixtures were placed on ice for 1–3 minutes before absorbances at 532 nm were measured. The net absorbance change for each sample were obtained by deducting the absorbance from a control sample consisting of identical chemical components except for the Vitamin C or Aβ peptides.

[4] = Effect of OH. scavengers on OH. generation by Vitamin C (TBARS); format: biochemical; conditions: scavenger 5 mM
Description: as §2, §3

[5] = system: Aβ deposits in AD brain tissue; experiment: Chelator-promoted solubilization (extraction) of Aβ from AD brain homogenates, Western blot densitometry; format: biochemical, human; conditions: for Effect of Chelators (% change from control) upon extraction of Aβ: mean of 6 AD brain samples; for chelator concentration of peak Aβ solubilization (lower peak) / chelator concentration of peak Aβ solubilization (upper peak): titration curves
Description: 0.5 g of prefrontal cortex was dissected and homogenized in PBS±chelator as indicated. The homogenate was then centrifuged (100,000 g) and the supernatant removed, and a sample taken for western blot assay using anti-Aβ specific antibodies after Tricine PAGE. Densitometry was performed against synthetic peptide standards.
(§4) Suitable quantities of gray matter from each subject were minced to serve as pools of homogenous tissue. […] To obtain the soluble fraction, the homogenates were centrifuged at 100,000×g for 30 min (Beckman J180, Beckman instruments, Fullerton, Calif.) and the supernatant collected in 1 ml aliquots and stored on ice or immediately frozen at −70° C. In each experiment, all protein was precipitated from 1 ml of supernatant from each treatment group using 1:5 ice cold 10% trichloracetic acid and pelleted in a bench top microfuge (Heraeus, Osteroder, Germany) at 10,000×g. The remaining pellet was frozen at −70° C.
Precipitated protein was subjected to SDS polyacrylamide gel electrophoresis (SDS-PAGE) on Novex pre-cast 10–20% Tris-Tricine gels followed by Western transfer onto 0.2 μm nitrocellulose membrane (Biorad, Hercules, Calif.). […] Each gel included two or more lanes containing known quantities of synthetic Aβ which served as internal reference standards. Blot images were captured by a Relisys scanner with transparency adapter (Teco Information Systems, Taiwan, ROC) and densitometry conducted using the NIH Image 1.6 program (National Institutes for Health, USA., Modified for PC by Scion Corporation, Frederick, Md.), calibrated using a step diffusion chart. For quantitation of Aβ in brain extracts, the internal reference standards of synthetic Aβ were utilized to produce standard curves from which values were interpolated.

[6] = system: Aβ deposits in age-matched control / healthy brain tissue; experiment: Chelator-promoted solubilization of Aβ from non-AD control brain tissue, Western blot; format: biochemical, human; conditions: chelator 2 mM
Description: Using the same technique, zinc-mediated assembly of Aβ in normal brains was shown. FIGS. 20A and 20B show sedimentable Aβ deposits in healthy brain tissue. The effects of chelators in enhancing Aβ extraction from brain homogenates is also observed in normal tissue. FIG. 20A illustrates a western blot with anti-Aβ antibody of material extracted from an individual with no history of neurological disorder. T=TPEN, E=EGTA, B=bathocuproine.
as §4
Precipitated protein was subjected to SDS polyacrylamide gel electrophoresis (SDS-PAGE) on Novex pre-cast 10–20% Tris-Tricine gels followed by Western transfer onto 0.2 μm nitrocellulose membrane (Biorad, Hercules, Calif.). Aβ was detected using the WO2, G210 or G211 monoclonal antibodies (Ida, N. et al., J. Biol. Chem. 271:22908 (1996)) in combination with HRP-conjugated rabbit anti-mouse IgG (Dako, Denmark), and visualized using chemiluminescence (ECL, Amersham Life Science, Little Chalfont, Buckinghamshire, UK). Each gel included two or more lanes containing known quantities of synthetic Aβ which served as internal reference standards. […] For quantitation of Aβ in brain extracts, the internal reference standards of synthetic Aβ were utilized to produce standard curves from which values were interpolated.

[7] = chelator 2 mM, mean of AD subjects 1-6

Chain of Aβ1-42 (P05067 672-713 limits assumed): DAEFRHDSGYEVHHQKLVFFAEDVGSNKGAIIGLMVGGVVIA

What does the source list for Aβ1-28: Aβ fragment 1-28, purchased?
available Cu^2+ reduced [1]: reduced no Cu^2+; available Fe^3+ reduced [2]: did not significantly facilitate the reduction of Fe^3+

Which results are given for “insulin: histidine-containing peptide that can bind copper and zinc”?
available Cu^2+ reduced [1]: 10%; available Fe^3+ reduced [2]: did not significantly facilitate the reduction of Fe^3+; Cu^2+ reduction / redox reactivity [3]: no Cu^2+ reduction

Which results are given for `OC[C@@H](O)[C@@H](O)[C@H](O)[C@H](O)CO` [Mannitol]?
effect on generation of OH. by Aβ1-42 (Aβ1-42): neither were able to quench; effect on generation of OH. by Vitamin C ([4]; in the presence of Fe^3+): suppressed

Which “effect on generation of OH. by Aβ1-42” value (Aβ1-42) does the source give for `C[S+](C)[O-]` [DMSO, dimethyl sulfoxide] here?
The value was “neither were able to quench”.

What about the “effect on generation of OH. by Vitamin C” value ([4]; in the presence of Cu^2+) of the same compound?
The value was “suppressed”.

And the “effect on generation of OH. by Vitamin C” value ([4]; in the presence of Fe^3+)?
Its value is “suppressed”.

Which “Effect of Chelators (% change from control) upon extraction of Aβ” value ([5]; chelator 0.1 mM) does the source give for `O=C(O)CN(CCOCCOCCN(CC(=O)O)CC(=O)O)CC(=O)O` [EGTA] here?
The value was 207%.

And the “effect on Aβ signal” value ([5]; chelator 2 mM)?
The value was “virtually abolished the signal for Aβ; also recorded: always produced a diminution in Aβ signal”.

And the “Effect of Chelators (% change from control) upon extraction of Aβ” value ([5]; chelator 2.0 mM)?
Its value is 46%.

And the “chelator concentration of peak Aβ solubilization (lower peak)” value [5]?
Its value is roughly 0.004 mM.

And the “chelator concentration of peak Aβ solubilization (upper peak)” value [5]?
Its value is roughly 0.1 mM.

Which results are given for `O=C1O[C@H]([C@@H](O)CO)C(O)=C1O` [Vitamin C, ascorbic acid]?
available Cu^2+ reduced [1]: reduced Cu^2+ efficiently; available Fe^3+ reduced [2]: 15%

Which “mean increase in solubilized Aβ over PBS alone” value ([5]; 6 AD brains) does the source give for `c1ccc(CN(CCN(Cc2ccccn2)Cc2ccccn2)Cc2ccccn2)nc1` [TPEN, N,N,N′,N′-tetrakis [2-pyridyl-methyl]ethylenediamine] here?
Its value is “around 2 fold”.

What about the “Effect of Chelators (% change from control) upon extraction of Aβ” value ([5]; chelator 0.1 mM) of the same compound?
The value was 182%.

And the “Effect of Chelators (% change from control) upon extraction of Aβ” value ([5]; chelator 2.0 mM)?
Its value is 241%.

What about the “Extractable Aβ (% of total), mean X” value [5, 7] of the same compound?
The value was “(4.6) %”.

What about the “Extractable Aβ, mean X” value [5, 7] of the same compound?
The value was 2.73 µg/g.

What about the “X C/PBS” value ([5]; chelator 2 mM, mean with chelator over mean with PBS, AD) of the same compound?
The value was 2.60.

What about the “chelator concentration of peak Aβ solubilization (lower peak)” value [5] of the same compound?
The value was roughly 0.004 mM.

And the “chelator concentration of peak Aβ solubilization (upper peak)” value [5]?
The value was roughly 0.1 mM.

What about the “Extractable Aβ (% of total), mean X” value ([6]; mean of AC subjects 1-5) of the same compound?
Its value is “(16.7) %”.

What about the “Extractable Aβ, mean X” value ([6]; mean of AC subjects 1-5) of the same compound?
Its value is 0.40 µg/g.

What about the “X C/PBS” value ([6]; mean with chelator over mean with PBS, AC) of the same compound?
The value was 1.6.

Which “available Fe^3+ reduced” value [2] does the source give for Aβ1-42: synthetic human Aβ1-42 peptide here?
The value was 50%.
